Laboratory results published in patent publication US7199267B1, “Recognition of oligiosaccaride molecular targets by polycationic small molecule inhibitors and treatment of immunological disorders and infectious diseases” (MediQuest Therapeutics, Inc., priority 2005, dated 2007).

Key:
[1] = BODIPY-TR-cadaverine (BC) fluorescence displacement assay for LPS binding affinity; conditions: purified re-synthesized leads; half-maximal effective displacement of probe; 50 mM Tris buffer, pH 7.4; read-out: Binding affinity (BC displacement) ED50 value
Text: Quantitative Estimation of LPS Binding Affinity. The relative binding affinities of the entire library of analogs with a recently-described high-throughput fluorescence based displacement assay, is examined using BODIPY-TR cadaverine (BC).^81;82 Results are reported as half-maximal effective displacement of probe (ED50). In all experiments, Polymyxin B (PMB), a decapeptide antibiotic, known to bind and neutralize LPS,^83–86 is used as a reference compound.
Rapid-throughput Fluorescence Displacement Assay for quantifying binding affinities to LPS. The BODIPY-TR-cadaverine (BC; (5-(((4-(4,4-difluoro-5-(2-thienyl)-4-bora-3a,4a-diaza-s-indacene-3-yl) phenoxy)acetyl)amino)pentylamine, hydrochloride; obtained from Molecular probes, Inc., Eugene, Oreg.) displacement assay to quantify the affinities of binding of compounds to LPS has been described in detail recently.^81 This assay is performed in a rapid-throughput format as follows: the first column (16 wells) of a Corning Nonbinding Surface 384-well flat-bottom black fluorescence microplate contain 15 test compounds plus polymyxin B, all at 5 mM in DMSO, and are serially diluted two-fold in 50 mM Tris buffer, pH 7.4, across the remaining 23 columns, achieving a final dilution of 0.596 nM in a volume of 40 μl. Polymyxin B (PMB), a peptide antibiotic known to bind and neutralize LPS^95 serve as the positive control and reference compound for every plate, enabling the quantitative assessment of repeatability and reproducibility (CV and Z′ factors) for the assay. Automated liquid handling is performed on a Precision 2000 automated microplate pipetting system, programmed using the Precision Power software, Bio-Tek Instruments Inc., VT, USA.

[2] = tested on: murine macrophage J774A.1 cells; test: Nitric oxide assay (Griess): inhibition of LPS-induced NO production; type: cell-based; conditions: purified re-synthesized leads; 10 ng/ml LPS stimulation, 16 h; read-out: NO inhibition in murine J774 cells IC50 value
Experimental: Assessment of neutralization of LPS toxicity: NO inhibition activity. Murine monocytes (J774.A1 cells) produce measurable quantities of NO upon exposure to LPS and provide a high-throughput and validated model for the rapid and quantitative assessment of compounds in neutralizing the toxicity of LPS.^81;82;94 Compounds that neutralize LPS inhibit NO production in a dose-dependent manner from which 50% inhibitory concentrations (IC50) were determined (FIG. 4). The analogs determined to have the highest affinity in the BC-binding assay are then assayed in this NO inhibition assay (Table 1). Results in this assay parallel those in the binding assay (FIG. 5). Nitric Oxide Assay. Nitric oxide production is measured as total nitrite in murine macrophage J774A.1 cells using the Griess assay^96 as described previously.^94 J774A.1 cells are plated at ˜10^5/ml in a volume of 40 μl/well, in 384-well, flat-bottomed, cell culture treated microtiter plates and subsequently stimulated with 10 ng/ml lipopolysaccharide (LPS). Concurrent to LPS stimulation, serially diluted concentrations of test compounds are added to the cell medium and left to incubate overnight for 16 h. Polymyxin B is used as reference compound in each plate. Positive- (LPS stimulation only) and negative-controls (J774A. 1 medium only) are included in each experiment. Nitrite concentrations are measured by adding 40 μl of supernatant to equal volumes of Griess reagents ([…]; 0.1% NED solution in ddH2O and 1% sulfanilamide, 5% phosphoric acid solution in ddH2O) and incubating for 15 minutes at room temperature in the dark. Absorbance at 535 nm is measured using a Molecular Devices Spectramax M2 multifunction plate reader (Sunnyvale, Calif.). Nitrite concentrations are interpolated from standard curves obtained from serially diluted sodium nitrite standards.

Compound | EC50 [1] | IC50 [2]
CCCCCCCCCCCCCCCCCCNCC(=O)NCCCN [compound 2322] | 3.8 µM | 5.56 µM
CCCCCCCCCCCCCCCCCCNCC(=O)NCC(=O)NCCCN [compound 1137] | 6.61 µM | 7.94 µM
CCCCCCCCCCCCCCCCCCNCC(=O)NCC(=O)NCCOCCN [compound 1047] | 14 µM | 11.5 µM
CCCCCCCCCCCCCCCCCCNCC(=O)NC(Cc1ccccc1)C(=O)NCCCN (centres unmarked) [compound 1092] | 8.8 µM | 6.74 µM
CCCCCCCCCCCCCCCCCCNCCC(=O)NCC(=O)NCCOCCN [compound 1052] | 14.2 µM | 1.84 µM
CCCCCCCCCCCCCCCCCCNCCCC(=O)NCC(=O)NCCOCCN [compound 1057] | 10.8 µM | 3.33 µM
CCCCCCCCCCCCCCCCCCNCCCC(=O)NCCOCCN [compound 2330] | 5.73 µM | 5 µM
CCCCCCCCCCCCCCCCCCNCC(=O)NCCOCCN [compound 2326] | 12.2 µM | 9.73 µM
CCCCCCCCCCCCCCCCCCNCCC(=O)NCC(=O)NCCCN [compound 1142] | 2420 µM | 5.26 µM
CCCCCCCCCCCCCCCCCCNCCC(=O)NC(Cc1ccccc1)C(=O)NCCCCCN (centres unmarked) [compound 1187] | 3850 µM | 4.88 µM
CCCCCCCCCCCCCCCCCCNCC(=O)NCCCCCN [compound 2325] | 8.74 µM | 3.96 µM
CCCCCCCCCCCCCCCCCCNCC(=O)NC(Cc1cnc[nH]1)C(=O)NCCOCCN (centres unmarked) [compound 1032] | 13.1 µM | 1.64 µM
CCCCCCCCCCCCCCCCCCNCC(=O)NC(Cc1cnc[nH]1)C(=O)NCCCCCN (centres unmarked) [compound 1212] | 12.1 µM | 2.04 µM
CCCCCCCCCCCCCCCCCCNCCC(=O)NCCCCCN [compound 2327] | 4.03 µM | 1.08 µM
CCCCCCCCCCCCCCCCCCNCCCC(=O)NC(Cc1cnc[nH]1)C(=O)NCCCN (centres unmarked) [compound 1132] | 3.01 µM | 1.83 µM
CCCCCCCCCCCCCCCCCCNCCCC(=O)NC(Cc1ccccc1)C(=O)NCCCN (centres unmarked) [compound 1102] | 5.75 µM | 3.42 µM
CCCCCCCCCCCCCCCCCCNCCCC(=O)NC(Cc1cnc[nH]1)C(=O)NCCCCCN (centres unmarked) [compound 1222] | 18.7 µM | 0.9 µM

Compound | EC50 [1] | IC50 [2]
CCCCCCCCCCCCCCCCCCNCCCC(=O)NCC(=O)NCCCN [compound 1147] | 6.14 µM | 6.57 µM
CCCCCCCCCCCCCCCCCCNCCCC(=O)NC(Cc1ccccc1)C(=O)NCCOCCN (centres unmarked) [compound 1012] | 7.68 µM | 3.78 µM
CCCCCCCCCCCCCCCCCCNCCC(=O)NC(Cc1ccccc1)C(=O)NCCCN (centres unmarked) [compound 1097] | 4.13 µM | 8.7 µM
CCCCCCCCCCCCCCCCCCNCCC(=O)NC(Cc1cnc[nH]1)C(=O)NCCCN (centres unmarked) [compound 1127] | 6.86 µM | 8.06 µM
CCCCCCCCCCCCCCCCCCNCC(=O)NC(Cc1cnc[nH]1)C(=O)NCCCN (centres unmarked) [compound 1122] | 4.87 µM | 6.9 µM
CCCCCCCCCCCCCCCCCCNCCCC(=O)NC(Cc1cnc[nH]1)C(=O)NCCOCCN (centres unmarked) [compound 1042] | 5.38 µM | 1.86 µM
CCCCCCCCCCCCCCCCCCNCCC(=O)NCCOCCN [compound 2328] | 9.16 µM | 6.54 µM
CCCCCCCCCCCCCCCCCCNCC(=O)NC(Cc1ccccc1)C(=O)NCCOCCN (centres unmarked) [compound 1002] | 12.4 µM | 17.6 µM
CCCCCCCCCCCCCCCCCCNCCCC(=O)NCCCN [compound 2324] | 6.21 µM | 4.87 µM
CCCCCCCCCCCCCCCCCCNCC(=O)NCC(=O)NCCCCCN [compound 1227] | 28.2 µM | 3.27 µM
CCCCCCCCCCCCCCCCCCNCCCC(=O)NCC(=O)NCCCCCN [compound 1237] | 9.77 µM | 3.22 µM
CCCCCCCCCCCCCCCCCCNCCC(=O)NC(Cc1ccccc1)C(=O)NCCOCCN (centres unmarked) [compound 1007] | 2.54 µM | 2.79 µM
CCCCCCCCCCCCCCCCCCNCCCC(=O)NCCCCCN [compound 2329] | 7.61 µM | 2.07 µM
CCCCCCCCCCCCCCCCCCNCCC(=O)NC(Cc1cnc[nH]1)C(=O)NCCOCCN (centres unmarked) [compound 1037] | 3.17 µM | 1.88 µM
CCCCCCCCCCCCCCCCCCNCCC(=O)NCC(=O)NCCCCCN [compound 1232] | 11.2 µM | 4.61 µM
CCCCCCCCCCCCCCCCCCNCCC(=O)NCCCN [compound 2323] | 9.92 µM | 7.49 µM
CCCCCCCCCCCCCCCCCCNCCCC(=O)NC(Cc1ccccc1)C(=O)NCCCCCN (centres unmarked) [compound 1192] | 7.51 µM | 4.8 µM
